Measured values published in patent US20110263046A1, “Methods of identification of novel ligands for modulation of orphan nuclear receptor RAR-related orphan receptor-gamma (NR1F3) activity” (PHENEX PHARMACEUTICALS AG, priority 2008, published 2011).
Entries after “also recorded” stand apart in the source; their conditions may differ.

Tests used:
[1] = biological target: T1, RORgamma ligand binding domain (Homo sapiens, UniProt P51449); test: TR-FRET assay variation: agonist titration on top of saturating antagonist (4 μM LE540); assay type: biochemical; design: made in house; host or cells: E. coli BL21(DE3)
T1 sequence (P51449 267-518): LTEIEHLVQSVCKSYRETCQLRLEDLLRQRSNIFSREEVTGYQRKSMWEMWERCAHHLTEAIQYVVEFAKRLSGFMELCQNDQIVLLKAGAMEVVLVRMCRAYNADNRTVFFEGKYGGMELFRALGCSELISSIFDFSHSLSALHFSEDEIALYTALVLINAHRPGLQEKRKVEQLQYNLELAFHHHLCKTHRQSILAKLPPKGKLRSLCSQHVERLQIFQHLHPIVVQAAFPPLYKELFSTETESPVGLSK
Description: (§1) The ligand binding domain (LBD) of RORγ was expressed as fusion protein with GST in […] cells using the vector pDEST15. Cells were lysed by lysozyme-treatment and sonication, and the fusion proteins purified over glutathione sepharose (Pharmacia) according to the manufacturers instructions. For screening of compounds for their influence on the RORγ-peptide interaction, the LANCE technology (Perkin Elmer) was applied. This method relies on the binding dependent energy transfer from a donor to an acceptor fluorophor attached to the binding partner of interest. For ease of handling and reduction of background from compound fluorescence LANCE technology makes use of generic fluorophore labels and time resolved detection assays were done in a final volume of 25 μl in a 384 well plate, in a Tris-based buffer (20 mM Tris-HCl pH 7.9; 60 mM KCl, 5 mM MgCl2; 35 ng/μl BSA), containing 20-60 ng/well recombinantly expressed RORγ-LBD fused to GST, 200-600 nM N-terminally biotinylated peptide, 200 ng/well Streptavidin-xIAPC conjugate (Prozyme) and 6-10 ng/well Eu W1024-antiGST (Perkin Elmer). DMSO content of the samples was kept at 1%. After generation of the assay mix the potentially RORγ modulating ligands were diluted. After his step, the assay was equilibrated for one hour in the dark at room temperature in FIA-plates black 384 well (Greiner). The LANCE signal was detected by a Perkin Elmer VICTOR2V™ Multilabel Counter. […] Ligands that promote the complex formation induce a concentration-dependent increase in time-resolved fluorescent signal.
In a variation of the assay described above, an antagonistic compound was added in a saturating concentration (4 μM) to the assay mix. Then the agonistic compounds were diluted and the assay was equilibrated for one hour in the dark.

[2] = biological target: T1, RORgamma ligand binding domain; test: TR-FRET ligand sensing assay: RORγ-LBD / coactivator peptide interaction; assay type: biochemical; design: made in house; host or cells: E. coli BL21(DE3); conditions: for IC50: antagonistic
Description: As described in more detail in the examples, a GST-RORgamma-LBD fusion protein is expressed and purified from E. coli. The TR-FRET assays were performed in a final volume of 25 μl in individual wells of a 384 well plate using a Tris-based buffer system: 10-50 mM Tris-HCl pH 7.9; 50-100 mM KCl, 1-10 mM MgCl2; 20-100 ng/μl BSA), containing 20-60 ng/well recombinantly expressed RORγ-LBD fused to GST, 200-600 nM N-terminally biotinylated peptide (e.g. derived from SRC-1 or TIF-2), 50-500 ng/well Streptavidin-xIAPC conjugate (Prozyme) and 2-20 ng/well Eu W1024-antiGST (Perkin Elmer).
The human RORg ligand binding domain (LBD) was expressed in E. coli strain BL21(DE3) as an N-terminal glutathione-S-transferase (GST) tagged fusion protein. The DNA encoding the RORg ligand binding domain was cloned into vector pDEST15 (Invitrogen). […] Expression in pDEST15 is controlled by a IPTG inducible T7 promoter and cloning and transformation of E. coli was done essentially according to standard protocols known to persons skilled in the art and supplied by Invitrogen.
Determination of the interaction of a ligand with the human RORgamma ligand binding domain was done by using a Ligand Sensing Assay based on Time-resolved Fluorescence Energy Transfer (TR-FRET).
This method measures the ability of putative ligands to modulate the interaction between the purified bacterial expressed RORg ligand binding domain (LBD) and synthetic N-terminally biotinylated peptides which are derived from nuclear receptor coactivator proteins such as but not limited to SRC1 (NcoA1), SRC2 (NcoA2,TIF2), SRC3 (NcoA3), PGC1α, PGC1β, CBP, GRIP1, TRAP220, RIP140.
as §1
Equation: Sigmoidal dose-response (variable slope) Y=Bottom+(Top-Bottom)/(1+10̂((LogEC50-X)*HillSlope))
This is identical to the “four parameter logistic equation”. The EC50 or IC50 values are calculated using this equation.

[3] = biological target: T1, RORgamma ligand binding domain; test: Radioligand displacement assay (3H-25-hydroxycholesterol); design: made in house; host or cells: E. coli BL21 (DE3); conditions: FIG. 1; for apparent potency and efficacy of displacement: comparison among ligands; for displacement of 3H-25-hydroxycholesterol bound to RORgamma-LBD: dose dependent, radioligand at saturating concentration (500 nM)
Description: This method measures the ability of putative ligands to displace a radioactively labeled compound that is bound to the RORgamma ligand binding domain.
The ligand binding domain (LBD) of RORγ was expressed as fusion protein with GST in BL-21 cells using the vector pDEST15. Cells were lysed by lysozyme-treatment and sonication, and the fusion proteins purified over glutathione sepharose (Pharmacia) according to the manufacturers instructions. For screening of compounds for their ability to bind to RORγ, commercially available 25-26,27-[…]-hydroxycholesterol
(Perkin Elmer, NET674250UC) was bound to the protein and displacement by non radioactive ligands was observed. The assay was done in a final volume of 100 μl in a 96-well glutathione and scintillant coated microplate (Perkin Elmer, SMP109001PK). […] Compounds to be tested were titrated and added to the protein-radioligand mix. DMSO content of the samples was kept at 1%. After addition of the compounds, the assay was equilibrated for 30 min at room temperature. After this incubation the assay plate wells were washed twice with Tris buffer (20 mM Tris-HCl pH 7.5; 60 mM KCl, 5 mM MgCl2) and subsequently measured for 500 sec per well in a LUMIstar OPTIMA (BMG).

[4] = system: IL-17 production by peripheral blood human mononuclear cells (PBMCs); test: PBMC stimulation and IL-17 secretion assay (ELISA); assay type: cell-based; conditions: 72 h; for mean concentration of IL-17: anti-CD3/anti-CD28 stimulated PBMCs
Description: Cryopreserved peripheral blood human mononuclear cells (PBMCs) were used for the experiments. The cells were thawed in CTL-Anti-Aggregate-Wash™ solution and washed once in CTL Wash™ medium with benzonase. PBMCs, suspended in CTL serum-free test media (CTL-Test™ Medium), were plated into 96-well BD BioCoat Anti-Human CD3 T-Cell activation plate at a total of 1×10^5 cells/well in triplicate. The cells were incubated with anti-CD28 (2 μg/ml) in the absence or presence of LE540, LE135 and Am580 at different concentrations for 72 h at 37° C. with 5% CO2. The compounds were added at the time 0. The supernatants were harvested and assayed for IL-17 according to the protocol from the corresponding ELISA kit (Invitrogen). The detection range was 15.6-1,000.0 pg/ml. Data are presented as means±s.d. values.
In the control experiments PBMCs were stimulated with anti-CD3 (plate) and anti-CD28 in the presence of 0.1% DMSO. The mean concentration of IL-17 was 1,003.36±45.18 pg/ml. In contrast, the concentration of IL-17 in non stimulated cells was under the detection range (<15.6 pg/ml). […] The compounds were added to the cells at time 0 together with the anti-CD28 mAb. […] The lower concentration of LE540 (0.1 μM) was also very potent in PBMCs. […] The amount of IL-17 protein was down regulated after treatment of cells with 3, 1, and 0.3 μM of LE135 (FIG. 3).

[5] = agonistic, assay includes 4 μM LE540, peptide TIF2(628-658), read-out: apparent EC50
[6] = agonistic, peptide TIF2(628-658), read-out: EC50
[7] = Homo sapiens, PBMC, 0.3 μM compound, stimulated PBMCs, read-out: percentage of IL-17 inhibition

| Compound | EC50 [1, 5] [µM] | EC50 [2, 6] [µM] | apparent potency and efficacy of displacement [3] | displacement of 3H-25-hydroxycholesterol bound to RORgamma-LBD [3] | IC50 ([2]; peptide SRC1(676-700)) [µM] | IC50 ([2]; peptide TIF2(628-658)) [µM] | production of IL-17 by human PBMCs (qualitative) ([4]; stimulated PBMCs) | other results |
| --- | --- | --- | --- | --- | --- | --- | --- | --- |
| CC(C)CC[C@@H](O)[C@@H](C)[C@H]1CC[C@H]2[C@@H]3CC=C4C[C@@H](O)CC[C@]4(C)[C@H]3CC[C@]12C [22R-Hydroxycholesterol] | – | – | – | – | – | – | – | EC50 [1]: 0.154 µM; EC50 [2]: 0.0165 µM |
| C[C@@H](CO)CCC[C@@H](C)[C@H]1CC[C@H]2[C@@H]3CC=C4C[C@@H](O)CC[C@]4(C)[C@H]3CC[C@]12C [(25R)-26-Hydroxycholesterol] | 0.146 | 0.0141 | – | – | – | – | – | – |
| CC(C)(C)c1cc(C(=O)C=Cc2ccc(C(=O)O)cc2)cc(C(C)(C)C)c1 [Ch55] | – | – | lowest potency and efficacy | able to displace | 12.2 | 11.3 | – | displacement of 3H-25-hydroxycholesterol bound to RORgamma-LBD ([3]; listed as CH55): dose-dependent competitive displacement |
| COC(=O)CC[C@@H](C)[C@H]1CC[C@H]2[C@@H]3CC=C4C[C@@H](O)CC[C@]4(C)[C@H]3CC[C@]12C [Cholenic Acid Methyl Ester] | 0.311 | 0.0275 | – | – | – | – | – | EC50 ([2]; agonistic, peptide TIF2(628-658), listed as cholenic acid methyl ester, read-out: EC50): 0.0277 µM |
| C[C@H](CCC(=O)N(C)C)[C@H]1CC[C@H]2[C@@H]3CC=C4C[C@@H](O)CC[C@]4(C)[C@H]3CC[C@]12C [DMHCA] | 0.085 | 0.0107 | – | – | – | – | – | – |
| CN1c2cc3c(cc2N=C(c2ccc(C(=O)O)cc2)c2ccccc21)C(C)(C)CCC3(C)C [LE135] | – | – | – | – | 19.3 | 13.2 | inhibit the production of IL-17 | inhibition at 0.3 µM [4, 7]: 35.8%; inhibition at 1 µM ([4]; Homo sapiens, PBMC, 1 μM compound, stimulated PBMCs, read-out: percentage of IL-17 inhibition): 61.9%; inhibition at 3 µM ([4]; Homo sapiens, PBMC, 3 μM compound, stimulated PBMCs, read-out: percentage of IL-17 inhibition): 75.9% |
| CN1c2cc3c(cc2N=C(c2ccc(C(=O)O)cc2)c2ccc4ccccc4c21)C(C)(C)CCC3(C)C [LE540] | – | – | highest | able to displace; also recorded: dose-dependent competitive displacement | 3.6 | 4.9 | inhibit the production of IL-17 | mean concentration of IL-17 ([4]; 0.1 μM compound): 659.39 pg/mL; mean concentration of IL-17 ([4]; 0.3 μM compound): 289.69 pg/mL; inhibition at 0.1 µM ([4]; Homo sapiens, PBMC, 0.1 μM compound, stimulated PBMCs, read-out: percentage of IL-17 inhibition): 34.3%; inhibition at 0.3 µM [4, 7]: 71.1% |
| C/C(=C\c1ccc(C(=O)O)cc1)c1ccc2c(c1)C(C)(C)CCC2(C)C [TTNPB] | – | – | less potent but seems rather efficient | dose-dependent competitive displacement | 8.6 | 8.2 | – | displacement of 3H-25-hydroxycholesterol bound to RORgamma-LBD ([3]; listed as TTNBP): able to displace |
| Am580 | – | – | – | – | 23.4 | 19.8 | inhibit the production of IL-17 | level of IL-17 ([4]; 1 μM compound, stimulated PBMCs): within the control range; level of IL-17 ([4]; 5 μM compound, stimulated PBMCs): within the control range; percentage of IL-17 inhibition ([4]; 10 μM compound, stimulated PBMCs): 69.73% |
